Entries after “also recorded” stand apart in the source; their conditions may differ.
Key:
[1] = molecular target: PDE5 (Homo sapiens, UniProt O76074); settings: cited from earlier work
[2] = test system: PDE5/CyaB1-chimera; assay: adenylate cyclase activity of PDE5/CyaB1-chimera (conversion of [α-32P]-ATP to cAMP); format: biochemical, human; settings: in the presence of cGMP; FIG. 6
Experimental: The adenylate cyclase activity of the PDE5/CyaB1-chimera is measured with and without the test substance. […] The incubation time should be between 1 and 120 min, the incubation temperature between 20 and 45° C., the Mg^2+-cofactor concentration between 1 and 20 mM (corresponding amounts of Mn^2+ may also be used as a cofactor) and the ATP concentration between 0.5 μM and 5 mM. An increase in the conversion with the substance compared to without the substance indicates a GAF-agonistic effect. If conversion is inhibited by adding the substance, this indicates a GAF-antagonistic effect of the substance. A GAF antagonism can also be measured via blockage of activation of PDE5/CyaB1-chimera by the native GAF ligand cGMP. In addition, the conversion at rising or fixed cGMP concentration is measured with and without the substance. If the conversion rates with the substance are below those without the substance, this indicates GAF antagonism of the substance. […]
The protein samples and the cocktail are measured in 1.5 mL reaction containers on ice, the reaction with ATP is started, and incubation is carried for 10 minutes at 37° C.
Each test mixture is carried in duplicate. […] With a test mixture without substance and cGMP, the basal enzyme activity is determined. […]
The inhibition or activation of the enzyme by the substance is calculated as % basal value according to the following formula: […]

| SMILES | increase of the activity of PDE5 via cGMP binding to the GAF tandem [1] | PDE5-antagonistic effect via binding to the GAF domain of PDE5 [2] |
| --- | --- | --- |
| Nc1nc2c(ncn2[C@@H]2O[C@@H]3COP(=O)(O)O[C@H]3[C@H]2O)c(=O)[nH]1 [cGMP] | tenfold |  |
| CCCc1nn(C)c2c(=O)[nH]c(-c3cc(S(=O)(=O)N4CCN(C)CC4)ccc3OCC)nc12 [Sildenafil] |  | None of the measured PDE5 inhibitors shows a PDE5-antagonistic effect; also recorded: None of the measured PDE5 inhibitors showed a PDE5-antagonistic action |

From US20090087871A1, “Method for Identifying PDE5-Modulators” (Atlanta Pharma AG, priority 2004, published 2009)
